Where a SMILES comes first, the peptide text is derived from it. Where no end group is shown, it is not given here. [ ]: non-standard residue; d: D form. The star is where a group is joined. Pip = O=C(O)[C@@H]1CCCCN1; Ac6c = NC1(C(=O)O)CCCCC1; Nle = CCCC[C@H](N)C(=O)O; X1 = CCCN1C(=O)CC(*)C1=O; Ac5c = NC1(C(=O)O)CCCC1; Aib = CC(C)(N)C(=O)O

A short description of data set [1]: Rat plasma half-life assay. It counts as in vitro ADME. The settings on record: rat plasma, 37° C., LC-MS; read-out: Rat Plasma T½ (converted). As for the experimental part: (§1) B. Human and Rat Plasma Half-Life Assay
(§2) 50 μL was removed at various times, like at 0, 1, 2, 3, 4, 8, 24, 32, 48, 56, 72 hours, mixed with 5 μL formic acid and 150 μL acetonitrile in a microcentrifuge tube, vertexed, and centrifuged for 10 minutes at 10K rpm. The supernatant was transferred to an injection vial and analyzed by LC-MS. The LC-MS system consisted of an API4000 mass spectrometer with an ESI probe. Positive ion mode and full scan detection were used. HPLC separation was carried out on a Luna 3μ C8 (2), 2×30 mm column with a gradient from 90% A to 90% B in 10 minutes at a flow rate of 0.3 ml/min. Buffer A was 1% formic acid in water and buffer B was 1% formic acid acetonitrile.

Data set [2] in a line: Human plasma half-life assay. It counts as in vitro ADME. The settings on record: human plasma, 37° C., LC-MS; read-out: Human Plasma T½ (converted). On the procedure:
as §1, §2

Consider `CC[C@H](C)[C@H](NC(=O)[C@H](CO)NC(=O)[C@H](Cc1ccc(O)cc1)NC(=O)[C@H](CC(=O)O)NC(=O)[C@H](CO)NC(=O)[C@@H](NC(=O)[C@H](Cc1ccccc1)NC(=O)C1(NC(=O)CNC(=O)[C@H](CCC(=O)O)NC(=O)C(C)(C)NC(=O)[C@@H](N)Cc2ccc(O)cc2)CCCC1)[C@@H](C)CC)C(=O)N[C@@H](C)C(=O)N[C@@H](CCSC)C(=O)N[C@@H](CC(=O)O)C(=O)N[C@@H](CCCCN)C(=O)N[C@H](C(=O)N[C@@H](Cc1c[nH]cn1)C(=O)N[C@@H](CCC(N)=O)C(=O)N[C@@H](CCC(N)=O)C(=O)N[C@@H](CC(=O)O)C(=O)N[C@@H](Cc1ccccc1)C(=O)N[C@H](C(=O)N[C@@H](CC(N)=O)C(=O)N[C@@H](Cc1c[nH]c2ccccc12)C(=O)N[C@@H](CC(C)C)C(=O)N[C@@H](CC(C)C)C(=O)N[C@@H](C)C(=O)N[C@@H](CCC(N)=O)C(=O)N[C@@H](CCCCN)C(N)=O)C(C)C)[C@@H](C)CC` [Example 11, (Aib^2, A5c^5)hGIP(1-30)-NH2], for which the half-life at 0.1 mg/ml is over 48 h in data set [1] and 44.4 h in data set [2]. For “YA[Pip]GTFISDYSI[Aib]MDKIHQQDFVNWLLAQKGKKNDWKHNITQ [Example 65, (hPro^3, Aib^13)hGIP(1-42)-OH]” the same measures were 1.5 h and 14.3 h. With `CCCC[C@H](NC(=O)C(C)(C)NC(=O)[C@@H](NC(=O)[C@H](CO)NC(=O)[C@H](Cc1ccc(O)cc1)NC(=O)[C@H](CC(=O)O)NC(=O)[C@H](CO)NC(=O)[C@@H](NC(=O)[C@H](Cc1ccccc1)NC(=O)[C@@H](NC(=O)CNC(=O)[C@@H]1CC(O)CN1C(=O)[C@H](C)NC(=O)[C@@H](N)Cc1ccc(O)cc1)[C@@H](C)O)[C@@H](C)CC)[C@@H](C)CC)C(=O)N[C@@H](CC(=O)O)C(=O)N[C@@H](CCCCN)C(=O)N[C@H](C(=O)N[C@@H](Cc1c[nH]cn1)C(=O)N[C@@H](CCC(N)=O)C(=O)N[C@@H](CCC(N)=O)C(=O)N[C@@H](CC(=O)O)C(=O)N[C@@H](Cc1ccccc1)C(=O)N[C@H](C(=O)N[C@@H](CC(N)=O)C(=O)N[C@@H](Cc1c[nH]c2ccccc12)C(=O)N[C@@H](CC(C)C)C(=O)N[C@@H](CC(C)C)C(=O)N[C@@H](C)C(=O)N[C@@H](CCC(N)=O)C(=O)N[C@@H](CCCCN)C(=O)NCC(=O)N[C@@H](CCCCN)C(=O)N[C@@H](CCCCN)C(=O)N[C@@H](CC(N)=O)C(=O)N[C@@H](CC(=O)O)C(=O)N[C@@H](Cc1c[nH]c2ccccc12)C(=O)N[C@@H](CCCCN)C(=O)N[C@@H](Cc1c[nH]cn1)C(=O)N[C@@H](CC(N)=O)C(=O)N[C@H](C(=O)N[C@H](C(=O)N[C@@H](CCC(N)=O)C(=O)O)[C@@H](C)O)[C@@H](C)CC)C(C)C)[C@@H](C)CC` (stereo partly shown) [Example 68, (4Hyp^3, Aib^13, Nle^14)hGIP(1-42)-OH], the half-life at 0.1 mg/ml in data set [1] is 1.9 h; in data set [2], over 48 h.

Consider “Y[Aib]EGTF[Ac6c]SDYSIAMDKIHQQDFVNWLLAQK[Aib]KKNDWKHNITQ-OH [Example 22, (Aib^2, 31, A6c^7)hGIP(1-42)-OH]”, for which the half-life at 0.1 mg/ml in data set [1] was 14.2 h; in data set [2], over 48 h.

On to “Y[Aib]EGTF[Ac6c]SDYSIA[Nle]DKIHQQDFVNWLLAQKGKKNDWKHN[Ac6c]TQ-OH [Example 28, (Aib^2, A6c^7, 40, Nle^14)hGIP(1-42)-OH]”, for which the half-life at 0.1 mg/ml in data set [1] was 11.6 h; in data set [2], over 48 h.

Consider “Y[Aib]EGTF[Ac6c]SDYSIAMDKIHQQDFVNWLLAQKGKKNC(X1)WKHNITQ-OH [Example 85, [Aib^2, A6c^7, Cys(Psu)^35]hGIP(1-42)-OH]”, for which the half-life at 0.1 mg/ml was 3.5 h in data set [1] and 7.3 h in data set [2].

As to `CC[C@H](C)[C@H](NC(=O)[C@H](CCCCN)NC(=O)[C@H](CC(=O)O)NC(=O)[C@H](CCSC)NC(=O)[C@H](C)NC(=O)[C@@H](NC(=O)C1(NC(=O)[C@H](Cc2ccc(O)cc2)NC(=O)[C@H](CC(=O)O)NC(=O)[C@H](CO)NC(=O)[C@@H](NC(=O)[C@H](Cc2ccccc2)NC(=O)[C@@H](NC(=O)CNC(=O)[C@@H]2CCCN2C(=O)[C@H](C)NC(=O)[C@@H](N)Cc2ccc(O)cc2)[C@@H](C)O)[C@@H](C)CC)CCCC1)[C@@H](C)CC)C(=O)N[C@@H](Cc1c[nH]cn1)C(=O)N[C@@H](CCC(N)=O)C(=O)N[C@@H](CCC(N)=O)C(=O)N[C@@H](CC(=O)O)C(=O)N[C@@H](Cc1ccccc1)C(=O)N[C@H](C(=O)N[C@@H](CC(N)=O)C(=O)N[C@@H](Cc1c[nH]c2ccccc12)C(=O)N[C@@H](CC(C)C)C(=O)N[C@@H](CC(C)C)C(=O)N[C@@H](C)C(=O)N[C@@H](CCC(N)=O)C(=O)N[C@@H](CCCCN)C(=O)NCC(=O)N[C@@H](CCCCN)C(=O)N[C@@H](CCCCN)C(=O)N[C@@H](CC(N)=O)C(=O)N[C@@H](CC(=O)O)C(=O)N[C@@H](Cc1c[nH]c2ccccc12)C(=O)N[C@@H](CCCCN)C(=O)N[C@@H](Cc1c[nH]cn1)C(=O)N[C@@H](CC(N)=O)C(=O)N[C@H](C(=O)N[C@H](C(=O)N[C@@H](CCC(N)=O)C(=O)O)[C@@H](C)O)[C@@H](C)CC)C(C)C` [Example 77, (Pro^3, A5c^11)hGIP(1-42)-OH], the results for the half-life at 0.1 mg/ml in data set [1] and in data set [2] were 1.5 h and 43.3 h, respectively. “Y[Aib]EGTFI[Aib]DYSIAMDKIHQQDFVNWLLAQKGKKNDWKHNITQ-OH [Example 9, (Aib^2, 8)hGIP(1-42)-OH]”: the half-life at 0.1 mg/ml in data set [1] is 9.2 h; in data set [2] it was over 48 h. In the case of “YA[Pip]GTFISDYSI[Aib][Nle]DKIHQQDFVNWLLAQKGKKNDWKHNITQ-OH [Example 63, (hPro^3, Aib^13, Nle^14)hGIP(1-42)-OH]”, the half-life at 0.1 mg/ml is 1.4 h in data set [1] and 14.2 h in data set [2]. Consider `CC[C@H](C)[C@H](NC(=O)[C@H](CO)NC(=O)[C@H](Cc1ccc(O)cc1)NC(=O)[C@H](CC(=O)O)NC(=O)[C@H](CO)NC(=O)C1(NC(=O)[C@H](Cc2ccccc2)NC(=O)[C@@H](NC(=O)CNC(=O)[C@@H]2CCCN2C(=O)[C@H](C)NC(=O)[C@@H](N)Cc2ccc(O)cc2)[C@@H](C)O)CCCC1)C(=O)N[C@@H](C)C(=O)NC1(C(=O)N[C@@H](CC(=O)O)C(=O)N[C@@H](CCCCN)C(=O)N[C@H](C(=O)N[C@@H](Cc2c[nH]cn2)C(=O)N[C@@H](CCC(N)=O)C(=O)N[C@@H](CCC(N)=O)C(=O)N[C@@H](CC(=O)O)C(=O)N[C@@H](Cc2ccccc2)C(=O)N[C@H](C(=O)N[C@@H](CC(N)=O)C(=O)N[C@@H](Cc2c[nH]c3ccccc23)C(=O)N[C@@H](CC(C)C)C(=O)N[C@@H](CC(C)C)C(=O)N[C@@H](C)C(=O)N[C@@H](CCC(N)=O)C(=O)N[C@@H](CCCCN)C(=O)NCC(=O)N[C@@H](CCCCN)C(=O)N[C@@H](CCCCN)C(=O)N[C@@H](CC(N)=O)C(=O)N[C@@H](CC(=O)O)C(=O)N[C@@H](Cc2c[nH]c3ccccc23)C(=O)N[C@@H](CCCCN)C(=O)N[C@@H](Cc2c[nH]cn2)C(=O)N[C@@H](CC(N)=O)C(=O)N[C@H](C(=O)N[C@H](C(=O)N[C@@H](CCC(N)=O)C(=O)O)[C@@H](C)O)[C@@H](C)CC)C(C)C)[C@@H](C)CC)CCCC1` [Example 76, (Pro^3, A5c^7, 14)hGIP(1-42)-OH], for which the half-life at 0.1 mg/ml in data set [1] was 1 h; in data set [2], 55.9 h. Consider `CCCC[C@H](NC(=O)[C@H](C)NC(=O)[C@@H](NC(=O)C(C)(C)NC(=O)[C@H](Cc1ccc(O)cc1)NC(=O)[C@H](CC(=O)O)NC(=O)[C@H](CO)NC(=O)[C@@H](NC(=O)[C@H](Cc1ccccc1)NC(=O)[C@@H](NC(=O)CNC(=O)[C@H](CCC(=O)O)NC(=O)C(C)(C)NC(=O)[C@@H](N)Cc1ccc(O)cc1)[C@@H](C)O)[C@@H](C)CC)[C@@H](C)CC)C(=O)N[C@@H](CC(=O)O)C(=O)N[C@@H](CCCCN)C(=O)N[C@H](C(=O)N[C@@H](Cc1c[nH]cn1)C(=O)N[C@@H](CCC(N)=O)C(=O)N[C@@H](CCC(N)=O)C(=O)N[C@@H](CC(=O)O)C(=O)N[C@@H](Cc1ccccc1)C(=O)N[C@H](C(=O)N[C@@H](CC(N)=O)C(=O)N[C@@H](Cc1c[nH]c2ccccc12)C(=O)N[C@@H](CC(C)C)C(=O)N[C@@H](CC(C)C)C(=O)N[C@@H](C)C(=O)N[C@@H](CCC(N)=O)C(=O)N[C@@H](CCCCN)C(N)=O)C(C)C)[C@@H](C)CC` [Example 33, (Aib^2, 11, Nle^14)hGIP(1-30)-NH2] (H-Y[Aib]EGTFISDY[Aib]IA[Nle]DKIHQQDFVNWLLAQK-NH2; N-terminus assumed), for which the half-life at 0.1 mg/ml in data set [1] is 34 h; in data set [2], over 48 h. `CC[C@H](C)[C@H](NC(=O)[C@H](CO)NC(=O)[C@H](Cc1ccc(O)cc1)NC(=O)[C@H](CC(=O)O)NC(=O)[C@H](CO)NC(=O)C1(NC(=O)[C@H](Cc2ccccc2)NC(=O)[C@@H](NC(=O)CNC(=O)[C@H](CCC(=O)O)NC(=O)C(C)(C)NC(=O)[C@@H](N)Cc2ccc(O)cc2)[C@@H](C)O)CCCC1)C(=O)N[C@@H](C)C(=O)NC1(C(=O)N[C@@H](CC(=O)O)C(=O)N[C@@H](CCCCN)C(=O)N[C@H](C(=O)N[C@@H](Cc2c[nH]cn2)C(=O)N[C@@H](CCC(N)=O)C(=O)N[C@@H](CCC(N)=O)C(=O)N[C@@H](CC(=O)O)C(=O)N[C@@H](Cc2ccccc2)C(=O)N[C@H](C(=O)N[C@@H](CC(N)=O)C(=O)N[C@@H](Cc2c[nH]c3ccccc23)C(=O)N[C@@H](CC(C)C)C(=O)N[C@@H](CC(C)C)C(=O)N[C@@H](C)C(=O)N[C@@H](CCC(N)=O)C(=O)N[C@@H](CCCCN)C(N)=O)C(C)C)[C@@H](C)CC)CCCC1` [Example 35, (Aib^2, A5c^7, 14)hGIP(1-30)-NH2] (H-Y[Aib]EGTF[Ac5c]SDYSIA[Ac5c]DKIHQQDFVNWLLAQK-NH2; N-terminus assumed): the half-life at 0.1 mg/ml in data set [1] was 39.4 h; in data set [2], over 48 h.

As to “Y[Aib]EGTF[Ac6c]SDYSIAMDKIHQQDFVNWLLAQKGKKNDWKHC(X1)ITQ-OH [Example 79, [Aib^2, A6c^7, Cys(Psu)^39]hGIP(1-42)-OH]”, in data set [1], the half-life at 0.1 mg/ml is 14.3 h.

The values above are taken from patent publication US9074014B2 (Ipsen Pharma S.A.S., priority 2008, dated 2015).
